US12692274B2, “Tetrahydroisoquinoline derivatives for the treatment of red blood disorders and inflammatory diseases” (Sanofi, priority 2020, dated 2026)

Columns and labels:
[1] = system: NQO1 activation in BEAS-2B cells; experiment: BEAS-2B cellular MTT assay of NQO1 activation, 0.3% HSA; format: cell-based
Method: (§1) The growth rate of the BEAS-2B cells changed based on the lot of BEGM SingleQuots in the BEGM media. The cell growth rate was determined for each lot of SingleQuots. Ideally, cells were thawed into media with the new lot of SingleQuots and grown for two passages before testing; however, growing an active culture in the new lot of media for two to three passages before testing was also acceptable. Until the cell growth rate was determined, cells were seeded at different densities (cells/cm^2) in multiple tissue culture flasks in order to avoid the cells becoming more than 70% confluent. Cells should not go above 70% confluent as the cells differentiate when they become confluent. After the cells were grown in the new lot of media as described above, the number of cells per well needed to seed in the collagen plates was determined by seeding different numbers of cells per well and incubating for 48 hours. Cell confluency was checked after 48 hours and a cell number that results in just below to just above confluency was chosen for future plate seeding. Cell confluency in the assay plate was 95-100% confluent after 48 hours.
(§2) Cell media consists of BEBM basal media with the BEGM SingleQuots added. SingleQuots vials were thawed in the tissue culture hood, and GA-1000 (Gentamicin-Amphotericin) was not added.
(§3) If complete media was to be used immediately, BEBM basal media was warmed to room temperature in the hood, but not as high as 37° C. When the media was made for future use, SingleQuots were added to cold BEBM. One at a time, the SingleQuots components (except GA-1000) were added to the BEBM media. After removal of each component from the vial, the vial was rinsed with 0.5-1 mL of BEBM (depending on the volume the vial could hold) and added to the bottle of BEBM. Once all components were added, the label that comes with the SingleQuots kit was put on the bottle of media and the date was recorded. The bottle of media was mixed by gentle shaking. The media was not filtered. This media was stored at 4° C., with any leftover media disposed of one month after the date the SingleQuots were added.
(§4) BEAS-2B Cell Splitting Protocol:
(§5) First, Trypsin was warmed to 37° C. in the water bath. The media was then warmed to room temperature by letting it sit in the tissue culture hood, but not as high as 37° C. The media was aspirated from flask(s) and the flask(s) were washed with PBS. From 1 to 1.5 mL of warm trypsin were added to each flask and incubated at 37° C. until cells came off the flask on their own (~8-10 minutes), with no vigorous tapping on the flask to detach the cells.
(§6) Media was added to each flask to a total volume of 8-10 mL per flask and transferred to 15 mL conical tube(s). The cells were spun down at 120 g for 5 minutes, level 5 brake. The cells can be spun down between 100 and 150 g. Next the media was aspirated and the cell pellet was resuspended in fresh media by pipetting up and down and flicking the tube side to side. Any clumps of cells that remained were allowed to settle to the bottom of the tube before the top suspension was transferred into another tube, leaving about 1 mL of media in the original tube. The 1 mL of media and cell clumps were mixed with a single channel p1000 pipette, and any remaining clumps were removed before adding the cells in suspension to the other tube. The suspension was mixed with a pipette, an aliquot was removed, and the cells were counted. The amount of cells/cm^2 desired was calculated and the required volume of cells was added to tissue culture flasks. For example, use of SingleQuots with ~6000 cells/cm^2 was appropriate for a three day incubation and ~3000 cells/cm^2 for a five day incubation. Optimal cell density differed depending on lot of SingleQuots. The flasks were incubated at 37° C. in 5% CO2.
(§7) Day One: Seeding BEAS-2B Cells in Collagen Plates:
(§8) Plate(s) were either seeded with 0.3% or 0% HSA. While the protocol was similar for both conditions any differences are noted herein below. […]

[2] = system: NQO1 activation in BEAS-2B cells; experiment: BEAS-2B cellular MTT assay of NQO1 activation, 0% HSA; format: cell-based
Method: as §1, §2, §3, §4, §5, §6, §7, §8

[3] = Homo sapiens, BEAS+, read-out: BEAS+ EC50
[4] = Homo sapiens, serum free, read-out: BEAS EC50 (nM) serum free
[5] = BEAS+ W, read-out: BEAS+ W EC50
[6] = Homo sapiens, BEAS+ W, read-out: BEAS+ W EC50
[7] = Homo sapiens, Serum Free W, read-out: BEAS EC50 (nM) Serum Free W
[8] = Serum Free W, read-out: BEAS EC50 (nM) Serum Free W
[9] = serum free, read-out: BEAS EC50 (nM) serum free

## Cc1cc2ccc1C(=O)N1CCc3ccc(cc3C1)C(CC(=O)O)c1ccc3c(c1)nnn3CCCCCO2 (stereo not drawn) [Compound 330]
[1]; [3]
  EC50: 862 nM
[2]; [4]
  EC50: 1070 nM

## O=C(O)CC1c2ccc3c(c2)CN(CC3)C(=O)c2ccc(cc2)OCCCCCCn2nnc3cc1ccc32 (stereo not drawn) [Compound 329]
[1]; [3]
  EC50: 1230 nM
[2]; [4]
  EC50: 403 nM

## CC(C)(C(=O)O)C1c2ccc3c(c2)CN(CC3)C(=O)c2ccc(cc2)OCCCCCCn2nnc3cc1ccc32 (stereo not drawn) [Compound 287]
[1]; [3]
  EC50: 112 nM
[2]; [4]
  EC50: 3.1 nM

## Cc1cc2ccc1C(=O)N1CCc3ccc(cc3C1)C(CC(=O)O)c1ccc3c(nnn3CCCCCC2)c1C (stereo not drawn) [Compound 295]
[1]; [3]
  EC50: 0.7 nM
[2]; [4]
  EC50: 0.2 nM

## Cc1cc2cnc1OCCCCCc1ccc(cc1)C(=O)N1CCc3ccc(cc3C1)[C@@H]2[C@@H](C)C(=O)O [Compound 72]
[1]; [5]
  EC50: 7720 nM
[1]; [6]
  EC50: 9870 nM
[2]; [7]
  EC50: > 1000 nM
[2]; [8]
  EC50: 1930 nM

## Cc1c2ccc3c1nnn3CCCCCCOc1ccc(c(F)c1)C(=O)N1CCc3ccc(cc3C1)[C@@H]2[C@@H](C)C(=O)O [Compound 181]
[1]; BEAS+, read-out: BEAS+ EC50
  EC50: 6.6 nM
[1]; [3]
  EC50: 5.3 nM
[2]; [4]
  EC50: 3.6 nM
[2]; [9]
  EC50: 3.4 nM

## Cc1cc2cnc1OCCCCCc1ccc(cc1)C(=O)N1CCc3ccc(cc3C1)[C@@H]2[C@H](C)C(=O)O [Compound 71]
[1]; [5]
  EC50: 13.2 nM
[1]; [6]
  EC50: 10.5 nM
[2]; [7]
  EC50: 3.4 nM
[2]; [8]
  EC50: 3.3 nM

## COc1cc2ncc1[C@H](CC(=O)O)c1ccc3c(c1)CN(CC3)C(=O)c1ccc(cc1)CCCCCO2 [Compound 79]
[1]; [5]
  EC50: 2040 nM
[1]; [6]
  EC50: 1720 nM
[2]; [7]
  EC50: 733 nM
[2]; [8]
  EC50: 810 nM

## Cc1cc2ccc1C(=O)N1CCc3ccc(cc3C1)[C@H](CC(=O)O)c1ccc3c(nnn3CCCCCC2)c1C [Compound 245]
[1]; BEAS+, read-out: BEAS+ EC50
  EC50: 37.6 nM
[1]; [3]
  EC50: 24.8 nM
[2]; [4]
  EC50: 19.4 nM
[2]; [9]
  EC50: 18.5 nM

## Cc1cc2ncc1[C@H](C(C)(C)C(=O)O)c1ccc3c(c1)CN(CC3)C(=O)c1ccc(cc1)CCCCCO2 [Compound 53]
[1]; [5]
  EC50: 47.8 nM
[1]; [6]
  EC50: 38.5 nM
[2]; [7]
  EC50: 8.7 nM
[2]; [8]
  EC50: 12.3 nM

## Cc1c2ccc3c1nnn3CCCCCCOc1ccc(c(F)c1)C(=O)N1CCc3ccc(cc3C1)[C@H]2[C@H](C)C(=O)O [Compound 156]
[1]; BEAS+, read-out: BEAS+ EC50
  EC50: 171 nM
[1]; [3]
  EC50: 201 nM
[2]; [4]
  EC50: 55.9 nM
[2]; [9]
  EC50: 44.3 nM

## COc1cc2ccc1C(=O)N1CCc3ccc(cc3C1)[C@H](CC(=O)O)c1ccc3c(nnn3CCCCCC2)c1C [Compound 108]
[2]; [7]
  EC50: 7.2 nM
[2]; [8]
  EC50: 7.9 nM

## COc1cc2ccc1C(=O)N1CCc3ccc(cc3C1)[C@@H](CC(=O)O)c1ccc3c(nnn3CCCCCC2)c1C [Compound 109]
[1]; [5]
  EC50: 100 nM
[1]; [6]
  EC50: 172 nM
[2]; [7]
  EC50: 32.1 nM
[2]; [8]
  EC50: 38 nM

## Cc1c2ccc3c1nnn3CCCCCCc1ccc(cc1)C(=O)N1CCc3ccc(cc3C1)[C@@H]2[C@@H](C)C(=O)O [Compound 132]
[1]; [6]
  EC50: > 10000 nM
[2]; [7]
  EC50: > 1000 nM

## Cc1cc2ncc1[C@@H]([C@H](C)C(=O)O)c1ccc3c(c1)CN(CC3)C(=O)c1ccc(cc1)CCCCCO2 [Compound 84]
[1]; [5]
  EC50: 30 nM
[1]; [6]
  EC50: 26.3 nM
[2]; [7]
  EC50: 7.4 nM
[2]; [8]
  EC50: 6.2 nM

## Cc1c2ccc3c1nnn3CCCCCCOc1ccc(c(F)c1)C(=O)N1CCc3ccc(cc3C1)C2CC(=O)O (stereo not drawn) [Compound 317]
[1]; [3]
  EC50: 11.9 nM
[2]; [4]
  EC50: 0.6 nM

## Cc1c2ccc3c1nnn3CCCCCCc1ccc(cc1)C(=O)N1CCc3ccc(cc3C1)[C@@H]2[C@@H](C)C(=O)O [Compound 176]
[1]; BEAS+, read-out: BEAS+ EC50
  EC50: 0.2 nM
[1]; [3]
  EC50: 0.1 nM
[2]; [4]
  EC50: 0.5 nM
[2]; [9]
  EC50: 0.8 nM

## Cc1c2ccc3c1nnn3CCOCCCOc1ccc(c(F)c1)C(=O)N1CCc3ccc(cc3C1)C2CC(=O)O (stereo not drawn) [Compound 382]
[1]; BEAS+, read-out: BEAS+ EC50
  EC50: 136 nM
[1]; [3]
  EC50: 169 nM
[2]; [4]
  EC50: 86.2 nM
[2]; [9]
  EC50: 125 nM

## Cc1cc2ncc1[C@@H](C(C)(C)C(=O)O)c1ccc3c(c1)CN(CC3)C(=O)c1ccc(cc1)CCCCCO2 [Compound 54]
[2]; [7]
  EC50: 0.2 nM
[2]; [8]
  EC50: 0.1 nM
